Target: Cannabinoid receptor (Mus musculus, UniProt P47746+P47936)
Experiment: Ability to displace [3H]HU-243 binding to cannabinoid receptor in synaptosomal membrane
Format: cell membranes

Compound | Ki
CCCCC/C=C\C/C=C\C/C=C\CCCCCCCC(=O)NCCO | 53.4 nM
CCCCC/C=C\C/C=C\C/C=C\C/C=C\CCCCCC(=O)NCCO | 34.4 nM

From ChEMBL document CHEMBL1126846, “Two new unsaturated fatty acid ethanolamides in brain that bind to the cannabinoid receptor” (J Med Chem, 1993)
